We go through 22 compounds from patent US9193697B2, “Oxazole derivatives useful as modulators of FAAH” (MERCK SHARP & DOHME CORP., priority 2010, dated 2015).

The target of assay [1] is T1, human FAAH (Fatty Acid Amide Hydrolase) (Homo sapiens (Human), UniProt O00519). The assay can be described thus: FAAH inhibition, human FAAH CHO whole cell format. It is filed as cell-based. The text has this:
(§1) To assist in assay development stable cell lines for human, murine and rat full length FAAH were developed. […] The full length FAAH was subcloned into the mammalian expression vector, pcDEF.neo, using XbaI and EcoRI restriction sites and used for stable cell line generation.
(§2) The full length murine FAAH was subcloned into the mammalian expression vector, pcDEFneo using either EcoRI (murine) or KpnI and EcoRI (rat) restriction sites. Chinese hamster ovary cells (CHO) were transfected following manufacturers protocol (AMAXA). Forty eight hours post transfection, cells were trypsinized and transferred to 96 well plates in Iscove's DMEM media supplemented with 2 mM Glutamine, 10% fetal calf serum, 1 mg/ml geneticin and HT Supplement (0.1 mM sodium hypoxanthine, 0.016 mM thymidine) in order to isolate single clones. […] Following removal of tissue culture media cells were dislodged following addition of Cellstripper (Mediatech, Inc. Manassas, Va.) and transferred to 96 well black clear bottom assay plate, centrifuged at 1,000 rpm for 3 mins and media removed and replaced with assay buffer (50 mM Tris pH8.0, 1 mM EDTA, 0.1% fatty acid free BSA). The reaction was initiated by addition of fluorescent substrate, AMC Arachidonoyl Amide (Cayman Chemical, Ann Arbor, Mich.) to 1 μM and reaction allowed to proceed for 2 hours at room temperature. Release of fluorescence was monitored in a CytoFluor Multiplate Reader.
(§3) Assays are performed on either cell lysate or microsome fractions prepared as described or in whole cell format employing either the fluorescent substrate AAMCA (Cayman chemical, Ann Arbor, Mich.,) or ^3H-anandamide ([ETHANOLAMINE-1-3H] American Radiolabeled Chemicals; 1 mCi/ml). […] AAMCA substrate was used to achieve a final concentration of 1 μM and reaction allowed to proceed at room temperature for 1-3 hours. […] Whole cell assay is conducted with cells harvested after rinsing tissue culture flasks three times with Ca^++Mg^++ free PBS, incubating for 10 min in Enzyme free dissociation media and centrifuging for 5 minutes at 1,000 rpm in table top centrifuge. Cells are resuspended in assay buffer at desired cell number in (4×10^4 cells/assay in 96-well format; 1×10^4 cells/assay in 384-well format) and assayed as described.

For assay [2], the target named is T1, human FAAH (Fatty Acid Amide Hydrolase). The assay can be described thus: FAAH inhibition, human FAAH CHO cell lysate (AAMCA fluorescence). It is filed as biochemical.
From the text: as §1, §2
CHO cells expressing FAAH were used to prepare either crude cell lysate or microsome fractions. To harvest cells, tissue culture media was decanted, the monolayer washed three times with Ca^++Mg^++ free PBS and cells recovered after 15 min in enzyme free dissociation media (Millipore Corp, Billerica, Mass.). Cells were collected by centrifuging at 2000 rpm for 15 min, and the cell pellet re-suspended with 50 mM HEPES (pH 7.4) containing 1 mM EDTA and the protease inhibitors aprotinin (1 mg/ml) and leupeptin (100 μM). The suspension was sonicated at 4° C. and the cell lysate recovered after centrifuging at 12,000×g (14,600 rpm, SS34 rotor) for 20 min at 4° C. to form a crude pellet of cell debris, nuclei, peroxisomes, lysosomes, and mitochondria; the supernatant or cell lysate was used for FAAH enzyme assay. In some eases, microsomes fractions enriched in FAAH were prepared by centrifuging the cell lysate further at 27,000 rpm (100,000×g) in SW28 rotor for 50 minutes at 4° C. The pellet containing FAAH-enriched microsomes was re-suspend in 50 mM HEPES, (pH 7.4) 1 mM EDTA, and any remaining DNA sheared by passage of material through a 23 gauge needle and aliquots of enzyme were store at −80° C. prior to use.
as §3
Alternatively, assays are performed using anandamide [ethanolamine 1-^3H] (specific activity of 10 Ci/mmol) diluted with cold anandamide to achieve a final assay concentration of 1 μM anandamide (˜50,000 cpm). Enzyme (CHO cell lysate, brain or liver homogenate) is incubated in assay buffer (50 mM Phosphate, pH 8.0, 1 mM EDTA, 200 mM KCl, 0.2% glycerol, 0.1% fatty acid free BSA) with inhibitor at 25° C. for 30 minutes.

T1 sequence (O00519 whole entry): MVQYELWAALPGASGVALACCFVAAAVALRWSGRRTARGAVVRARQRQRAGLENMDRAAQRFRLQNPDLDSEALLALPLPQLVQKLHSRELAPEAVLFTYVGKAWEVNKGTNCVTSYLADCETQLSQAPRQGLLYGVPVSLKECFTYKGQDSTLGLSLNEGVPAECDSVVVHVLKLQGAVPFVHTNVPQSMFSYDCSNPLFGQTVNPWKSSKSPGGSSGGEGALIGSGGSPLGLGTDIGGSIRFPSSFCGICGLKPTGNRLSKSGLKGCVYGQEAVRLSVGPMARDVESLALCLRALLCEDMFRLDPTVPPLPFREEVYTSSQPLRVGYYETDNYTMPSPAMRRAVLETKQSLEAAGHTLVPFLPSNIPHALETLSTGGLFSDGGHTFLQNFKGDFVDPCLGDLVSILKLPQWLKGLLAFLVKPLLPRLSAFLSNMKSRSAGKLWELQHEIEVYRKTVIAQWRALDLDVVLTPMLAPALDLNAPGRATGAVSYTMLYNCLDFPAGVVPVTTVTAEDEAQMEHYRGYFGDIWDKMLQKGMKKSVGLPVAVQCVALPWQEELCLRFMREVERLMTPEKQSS

By IC50 is commonly meant the point on the concentration scale where inhibition reaches its midpoint. A higher IC50 goes with weaker potency in that assay. As to `COCCOCC(=O)N1CCC(c2nc(-c3ccc([S+](C)[O-])cc3)c(Sc3ccc(Cl)cn3)o2)CC1` (centres unmarked) [Example A7.25, 1-(4-{5-[(5-chloropyridin-2-yl)sulfanyl]-4-[4-(methylsulfinyl)phenyl]-1,3-oxazol-2-yl}piperidin-1-yl)-2-(2-methoxyethoxy)ethanone], the results for the IC50 in assay [1] and in assay [2] were 4670 nM and 525 nM, respectively.
The corresponding values for `C[S+]([O-])c1ccc(-c2nc(C3CCNCC3)oc2Sc2ccc(Cl)cn2)cc1` (centres unmarked) [Example A7.15, 4-{5-[(5-Chloropyridin-2-yl)sulfanyl]-4-[4-(methylsulfinyl)phenyl]-1,3-oxazol-2-yl}piperidinium chloride] are no less than 10000 nM and 1420 nM.
Consider `CC(=O)N1CCC(c2nc(-c3ccc([S+](C)[O-])cc3)c(Sc3ccc(Cl)cn3)o2)CC1` (centres unmarked) [Example A7.18, 1-(4-{5-[(5-Chloropyridin-2-yl)sulfanyl]-4-[4-(methylsulfinyl)phenyl]-1,3-oxazol-2-yl}piperidin-1-yl)ethanone], for which the values for the IC50 in assay [1] and in assay [2] were 4420 nM and 839 nM, respectively.
In the same order, the values of `Clc1ccc(Sc2oc(C3CCOCC3)nc2-c2ccc(N3CCNCC3)nc2)cc1` [Example B5.9, 1-(5-{5-[(4-chlorophenyl)sulfanyl]-2-(tetrahydro-2H-pyran-4-yl)-1,3-oxazol-4-yl}pyridin-2-yl)piperazine] are 115 nM and 9.61 nM.
In the same order, the values of `Clc1ccc(Sc2oc(C3CCOCC3)nc2-c2cn[nH]c2)cc1` [Example B5.8, 5-[(4-chlorophenyl)sulfanyl]-4-(1H-pyrazol-4-yl)-2-(tetrahydro-2H-pyran-4-yl)-1,3-oxazole] are 737 nM and 146 nM.
The corresponding values for `COCCOCCOCC(=O)N1CCC(c2nc(-c3ccc([S+](C)[O-])cc3)c(Sc3ccc(Cl)cn3)o2)CC1` (centres unmarked) [Example A7.26] are 6550 nM and 748 nM.
On to `C[S+]([O-])c1ccc(-c2nc(C3CCN(C(=O)OCCNCCO)CC3)oc2Sc2ccc(Cl)cn2)cc1` (centres unmarked) [Example A7.30, 2-[(2-hydroxyethyl)amino]ethyl 4-{5-[(5-chloropyridin-2-yl)sulfanyl]-4-[4-(methylsulfinyl)phenyl]-1,3-oxazol-2-yl}piperidine-1-carboxylate], for which the values for the IC50 in assay [1] and in assay [2] were no less than 10000 nM and 2140 nM, respectively.
The corresponding values for `Clc1ccc(Sc2oc(C3CCOCC3)nc2-c2ccc(N3CCOCC3)nc2)cc1` [Example B5.3, 4-(5-{5-[(4-chlorophenyl)sulfanyl]-2-(tetrahydro-2H-pyran-4-yl)-1,3-oxazol-4-yl}pyridin-2-yl)morpholine] are 38.5 nM and 12.8 nM.
In the same order, the values of `Cn1nnc2ccc(-c3nc(C4CCOCC4)oc3Sc3ccc(Cl)cc3)cc21` [Example B5.7, 6-{5-[(4-chlorophenyl)sulfanyl]-2-(tetrahydro-2H-pyran-4-yl)-1,3-oxazol-4-yl}-1-methyl-1H-benzotriazole] are 169 nM and 92.2 nM.
The corresponding values for `C[S+]([O-])c1ccc(-c2nc(C3CCOCC3)oc2Sc2ccc(Cl)cn2)cn1` (centres unmarked) [Example A7.2, 5-chloro-2-({4-[6-(methylsulfinyl)pyridin-3-yl]-2-(tetrahydro-2H-pyran-4-yl)-1,3-oxazol-5-yl}sulfanyl)pyridine] are 935 nM and 293 nM.
On to `CN(C)c1ncc(-c2nc(C3CCOCC3)oc2Sc2ccc(Cl)cc2)cn1` [Example B5.11, 5-{5-[(4-chlorophenyl)sulfanyl]-2-(tetrahydro-2H-pyran-4-yl)-1,3-oxazol-4-yl}-N,N-dimethylpyrimidin-2-amine], for which the IC50 worked out at 36.9 nM in assay [1] and 13.1 nM in assay [2].
The corresponding values for `C[S+]([O-])c1ccc(-c2nc(C3CCN(C(=O)OCCN4CCOCC4)CC3)oc2Sc2ccc(Cl)cn2)cc1` (centres unmarked) [Example A7.27, 2-(morpholin-4-yl)ethyl 4-{5-[(5-chloropyridin-2-yl)sulfanyl]-4-[4-(methylsulfinyl)phenyl]-1,3-oxazol-2-yl}piperidine-1-carboxylate] are 5010 nM and 482 nM.
The corresponding values for `Clc1ccc(Sc2oc(C3CCOCC3)nc2-c2cnn(CC3OCCO3)c2)cc1` [Example B5.5, 5-[(4-chlorophenyl)sulfanyl]-4-[1-(1,3-dioxolan-2-ylmethyl)-1H-pyrazol-4-yl]-2-(tetrahydro-2H-pyran-4-yl)-1,3-oxazole] are 1050 nM and 255 nM.
`Clc1ccc(Sc2oc(C3CCOCC3)nc2-c2ccc3ncnn3c2)cc1` [Example B5.6, 6-{5-[(4-chlorophenyl)sulfanyl]-2-(tetrahydro-2H-pyran-4-yl)-1,3-oxazol-4-yl}[1,2,4]triazolo[1,5-a]pyridine]: the figures for the IC50 in assay [1] and in assay [2] were 421 nM and 118 nM, respectively.
Regarding `CN1CCC(c2nc(-c3ccc([S+](C)[O-])cc3)c(Sc3ccc(Cl)cn3)o2)CC1` (centres unmarked) [Example A7.20, 5-chloro-2-({2-(1-methylpiperidin-4-yl)-4-[4-(methylsulfinyl)phenyl]-1,3-oxazol-5-yl}sulfanyl)pyridine], the half-inhibitory concentration (IC50) in assay [1] is no less than 10000 nM; in assay [2], 1700 nM.
With `COCCOC(=O)N1CCC(c2nc(-c3ccc([S+](C)[O-])cc3)c(Sc3ccc(Cl)cn3)o2)CC1` (centres unmarked) [Example A7.24, 2-methoxyethyl 4-{5-[(5-chloropyridin-2-yl)sulfanyl]-4-[4-(methylsulfinyl)phenyl]-1,3-oxazol-2-yl}piperidine-1-carboxylate], the IC50 in assay [1] amounted to 1330 nM; in assay [2] it was 200 nM.
As for `CC(C)(O)c1ccc(-c2nc(C3CCOCC3)oc2Sc2ccc(Cl)cc2)cn1` [Example B5.1, 2-(5-{5-[(4-chlorophenyl)sulfanyl]-2-(tetrahydro-2H-pyran-4-yl)-1,3-oxazol-4-yl}pyridin-2-yl)propan-2-ol], the IC50 in assay [1] is 45.1 nM; in assay [2], 17.9 nM.
The corresponding values for `Clc1ccc(Sc2oc(C3CCOCC3)nc2-c2cnc3[nH]ccc3c2)cc1` [Example B5.4, 5-{5-[(4-chlorophenyl)sulfanyl]-2-(tetrahydro-2H-pyran-4-yl)-1,3-oxazol-4-yl}-1H-pyrrolo[2,3-b]pyridine] are 63.8 nM and 27.6 nM.
In the same order, the values of `Clc1ccc(Sc2oc(C3CCOCC3)nc2-c2ccc3[nH]ncc3c2)cc1` [Example B5.2, 5-{5-[(4-chlorophenyl)sulfanyl]-2-(tetrahydro-2H-pyran-4-yl)-1,3-oxazol-4-yl}-1H-indazole] are 10.9 nM and 4.19 nM.
As for `Clc1ccc(Sc2oc(C3CCOCC3)nc2C2=CCCNC2)cc1` [Example B5.15, 5-{5-[(4-chlorophenyl)sulfanyl]-2-(tetrahydro-2H-pyran-4-yl)-1,3-oxazol-4-yl}-1,2,3,6-tetrahydropyridine], the figures for the IC50 in assay [1] and in assay [2] were no less than 10000 nM and 4530 nM, respectively.
For `C[S+]([O-])c1ccc(-c2nc(C3=CCCCC3)oc2Sc2ccc(Cl)cc2)cc1` (centres unmarked) [Example C6.1, 5-[(4-chlorophenyl)sulfanyl]-2-(cyclohex-1-en-1-yl)-4-[4-(methylsulfinyl)phenyl]-1,3-oxazole], the IC50 in assay [1] came out at 105 nM; in assay [2], 11.9 nM.
The corresponding values for `C[S+]([O-])c1ccc(-c2nc(C3CCN(C(=O)Oc4ccccc4)CC3)oc2Sc2ccc(Cl)cn2)cc1` (centres unmarked) [Example A7.21, phenyl 4-{5-[(5-chloropyridin-2-yl)sulfanyl]-4-[4-(methylsulfinyl)phenyl]-1,3-oxazol-2-yl}piperidine-1-carboxylate] are 124 nM and 25.9 nM.
